Holding throughout (assay): relative viability (nuclei count vs DMSO), 5 days (fraction); higher = more cells survive
Compound in the test “Cediranib + OSI-027”: COc1cc2c(Oc3ccc4[nH]c(C)cc4c3F)ncnc2cc1OCCCN1CCCC1 [Cediranib] + COc1cccc2cc(-c3nc([C@H]4CC[C@H](C(=O)O)CC4)n4ncnc(N)c34)[nH]c12 [OSI-027] (partner 0.5 µM)
In short, it runs like this:
(§1)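 Each reported value is a median over duplicate plates. It expresses relative viability: treated-well nuclei count divided by vehicle-well nuclei count. Lung cancer cell lines in 1536-well plates were dosed by pin tool a day after seeding, alone with one drug or with a fixed anchor-drug dose plus five library-drug doses (not always all listed) in √10 steps, and nuclei were counted after 5 days.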

Compound in the test “Decitabine + Lapatinib”: Nc1ncn([C@H]2C[C@H](O)[C@@H](CO)O2)c(=O)n1 [Decitabine] + CS(=O)(=O)CCNCc1ccc(-c2ccc3ncnc(Nc4ccc(OCc5cccc(F)c5)c(Cl)c4)c3c2)o1 [Lapatinib] (partner 2 µM)
In short, it runs like this:
as §1

Compound in the test “Cediranib + Palbociclib”: COc1cc2c(Oc3ccc4[nH]c(C)cc4c3F)ncnc2cc1OCCCN1CCCC1 [Cediranib] + CC(=O)c1c(C)c2cnc(Nc3ccc(N4CCNCC4)cn3)nc2n(C2CCCC2)c1=O [Palbociclib] (partner 0.5 µM)
In a few lines: as §1

Compound in the test “Decitabine + Alpelisib”: Nc1ncn([C@H]2C[C@H](O)[C@@H](CO)O2)c(=O)n1 [Decitabine] + Cc1nc(NC(=O)N2CCC[C@H]2C(N)=O)sc1-c1ccnc(C(C)(C)C(F)(F)F)c1 [Alpelisib] (partner 2 µM)
In a few lines:
as §1

As to UMC-11, the relative viability with Cediranib + OSI-027 (first compound 0.04 µM) amounted to 0.461; in the test with Cediranib + OSI-027 (first compound 0.4 µM), 0.473; with Cediranib + OSI-027 (first compound 4 µM), 0.488; in the test with Decitabine + Lapatinib (first compound 0.04 µM), 0.877; with Decitabine + Lapatinib (first compound 0.1265 µM), 0.832; with Decitabine + Lapatinib (first compound 0.4 µM), 0.434. In addition, the relative viability with Decitabine + Lapatinib (first compound 1.265 µM) was found to be 0.357; with Decitabine + Lapatinib (first compound 4 µM), 0.346; in the test with Cediranib + Palbociclib (first compound 0.04 µM) it was 0.345; with Cediranib + Palbociclib (first compound 0.1265 µM) it was 0.341; with Cediranib + Palbociclib (first compound 0.4 µM) it was 0.315; in the test with Cediranib + Palbociclib (first compound 1.265 µM), 0.328. The relative viability with Cediranib + Palbociclib (first compound 4 µM) is 0.359; in the test with Decitabine + Alpelisib (first compound 0.04 µM) it was 0.848; in the test with Decitabine + Alpelisib (first compound 0.1265 µM) it was 0.535; in the test with Decitabine + Alpelisib (first compound 0.4 µM), 0.481; in the test with Decitabine + Alpelisib (first compound 1.265 µM), 0.309; with Decitabine + Alpelisib (first compound 4 µM), 0.281.
